Laboratory results taken from US20240189268A1, “SESQUITERPENE DERIVATIVE OR PHARMACEUTICALLY ACCEPTABLE SALT THEREOF AND USE THEREOF” (MFC CO., LTD., priority 2021, published 2024).
Entries after “also recorded” stand apart in the source; their conditions may differ.

Tests used:
[1] = Animal blood analysis of aging mice (CK, LDH, AST, TG); format: in vivo
Description: For the Control group, Reference group, and MFC-2 group, an animal blood analysis experiment was conducted on aging mice. As a result, it was confirmed that the serum CK level of creatine kinase (CK), which was an enzyme contained in skeletal muscle, myocardium, smooth muscle, etc. to be released into the blood when the muscle was damaged, decreased in the MFC-2 group compared to other groups (FIG. 5A).

Myostatin = assay: qRT-PCR of EDL muscle tissue of aging mice: myostatin; format: in vivo; details: vs Control group, listed as MFC-2
Source text: (§1) MuRF1 (muscle RING-finger protein 1) was a muscle-specific E3 ubiquitin ligase and a type of atrogene causing sarcopenia, and it was confirmed that the expression of Myostatin and MuRF1 was reduced in the EDL muscle tissue of the group fed with Compound MFC-2.

MuRF1 = assay: qRT-PCR of EDL muscle tissue of aging mice: MuRF1; format: in vivo
Source text: as §1

aging mice [2] = assay: Muscle size (GC, TA, EDL) of aging mice fed compound; format: in vivo; details: 21-month-old aging mice, in feed for 3 months; vs Control group
Description: 21-month-old aging mice were fed with regular feed (Control), feed containing Cedrol (Reference), and feed containing Compound 1-2 (MFC-2) for 3 months for each group, and thereafter, an animal experiment was conducted to compare the sizes of the Gastrocnemius muscle (GC), Tibialis anterior (TA), and Extensor digitorum longus (EDL) muscles separated from the hind limbs of aging mice.

NF-κB promoter = assay: pNF-κB luciferase assay (NF-κB promoter activity); format: cell-based
Description: NF-κB was a transcription factor binding to a promoter region of a myostatin gene, a muscle mass regulation target protein, and to determine whether NF-κB was involved in the regulation of myostatin expression of Compound MFC-2, after 12 hours of transfection with 1 μg of the pNF-κB vector, Compound 1-2 (MFC-2) was treated (3 μM) for 12 hours. Thereafter, the luciferase activity was measured by harvesting (FIG. 3H). For reference, pGL3 and pGL4.15 shown in FIG. 3 were a type of luciferase plasmid vector, and the vector itself without the gene inserted was used as Control (control group). The vector in which the promoter region of the NF-κB gene was inserted into the luciferase vector was expressed as pNF-κB.
After 12 hours of transfection with 1 μg of the pNF-κB vector, Compound 1-2 (MFC-2) was pretreated (3 μM) for 3 hours. Thereafter, 0.5 μg/ml of Doxorubicin was treated for 6 hours, harvested, and luciferase activity was measured (FIG. 3I).

promoter of MSTN = assay: pMSTN_luc luciferase assay (MSTN promoter activity); format: cell-based; details: for MSTN promoter activity (luciferase) after Doxorubicin: pretreated 3 hours (1-1: 1, 3, 10 μM; 1-2: 1, 3, 10, 30 μM), vs Doxorubicin alone
Description: After 12 hours of transfection with 1 μg of a pMSTN_luc vector (myostatin; new plasmid vector generated by inserting a promoter region of a MSTN gene into a plasmid vector (pGL4.15 vector) capable of luciferase experiment), Compound 1-1 (MFC-1) was pretreated (1, 3, and 10 μM) for 3 hours, respectively. Thereafter, luciferase activity was measured by harvesting after treatment with 0.5 μg/ml of an anticancer agent Doxorubicin for 6 hours. The results were illustrated in FIG. 1B.
(Meanwhile, the luciferase assay used in FIG. 1B was an assay of transfecting a luciferase vector into a cell, treating a drug, and then treating luciferin to measure the amount of light emitted by the activation of the promoter of the gene by the drug. This means that it is possible to determine whether the promoter was activated and that the gene may be regulated at the transcriptional level by the drug touching the promoter region.)
After 12 hours of transfection with 1 μg of the pMSTN_luc vector, Compound 1-2 (MFC-2) was pretreated (1, 3, 10, and 30 μM) for 3 hours, respectively. Thereafter, the luciferase activity was measured by harvesting after treatment with Doxorubicin 0.5 μg/ml for 6 hours. The results were illustrated in FIG. 1C.
Cedrol (Reference) and Compound 1-2 (MFC-2) were each treated (3 μM), respectively, and harvested 12 hours later to measure luciferase activity (FIG. 3J).

aging mice [3] = assay: Grip strength of aging mice; format: in vivo; details: for grip strength (muscle strength of forelimbs and hindlimbs): 24 to 25-month-old mice, once a week for 16 weeks, vs Control group
Description: In addition, the muscle strengths of the forelimbs and hindlimbs of 24 to 25-month-old mice were evaluated for the three groups using a grip strength measuring machine, and the evaluation was conducted once a week for 16 weeks.

[4] = aging mice blood, compared to other groups
[5] = then Doxorubicin 0.5 μg/ml 6 hours
[6] = Doxorubicin 0.5 μg/ml for 6 hours, alone

SMILES: COc1cc(C(=O)O[C@]2(C)CC[C@@]34C[C@@H]2C(C)(C)[C@@H]3CC[C@H]4C)ccc1OC(C)=O [Compound 1-2, (3R,3aS,6R,7R,8aS)-3,6,8,8-tetramethyloctahydro-1H-3a,7-methanoazulen-6-yl-4-acetoxy-3-methoxybenzoate]
- LDH level ([1]; aging mice blood, compared to Control group): decrease in LDH level
- AST level [1, 4]: decrease in the levels thereof
- TG level [1, 4]: decrease in the levels thereof
- serum CK level ([1]; aging mice, compared to other groups): decreased
- myostatin mRNA expression in EDL muscle tissue (Myostatin): significantly decreased compared to the Control group; also recorded: reduced
- MuRF1 mRNA expression in EDL muscle tissue (MuRF1): reduced
- muscle size (GC, TA, EDL) (aging mice [2]): increase in muscle size
- NF-κB promoter activity (luciferase) (NF-κB promoter; 3 μM for 12 hours, no Doxorubicin): reduces NF-κB promoter activity
- NF-κB promoter activity (luciferase) after Doxorubicin (NF-κB promoter; pretreated 3 μM 3 hours, then Doxorubicin 0.5 μg/ml 6 hours, vs Doxorubicin alone): lower expression level than the group treated with Doxorubicin alone
- pMSTN-luciferase activity (promoter of MSTN; 3 μM, harvested 12 hours later, compared with Cedrol): reduced pMSTN-luciferase activity more effectively than existing Cedrol (Reference)
- MSTN promoter activity (luciferase) after Doxorubicin (promoter of MSTN; [5]): lower expression level than the group treated with Doxorubicin alone
- inhibitory effect on MSTN promoter activity compared with Compound 1-1 (promoter of MSTN; pretreatment, then Doxorubicin 0.5 μg/ml 6 hours): greater inhibitory effect than Compound 1-1 (MFC-1)
- grip strength (muscle strength of forelimbs and hindlimbs) (aging mice [3]; listed as MFC-2): gradually increased compared to the Control group
- grip strength compared to Reference group (Cedrol) (aging mice [3]; aging mice, from week 15): increased compared to the Reference group from week 15 later

SMILES: C[C@@H]1CC[C@H]2C(C)(C)[C@H]3C[C@@]12CC[C@@]3(C)O [Cedrol, reference compound]
- grip strength (muscle strength of forelimbs and hindlimbs) (aging mice [3]): gradually increased compared to the Control group

SMILES: COc1cccc2c1C(=O)c1c(O)c3c(c(O)c1C2=O)C[C@@](O)(C(=O)CO)C[C@@H]3O[C@H]1C[C@H](N)[C@H](O)[C@H](C)O1 [Doxorubicin, reference compound]
- NF-κB promoter activity (luciferase) (NF-κB promoter; [6]): increased
- MSTN promoter activity (luciferase) (promoter of MSTN; [6]): rapidly increased

SMILES: COc1cc(C(=O)O[C@]2(C)CC[C@@]34C[C@@H]2C(C)(C)[C@@H]3CC[C@H]4C)ccc1O [Compound 1-1, (3R,3aS,6R,7R,8aS)-3,6,8,8-tetramethyloctahydro-1H-3a,7-metanoazulen-6-yl-4-hydroxy-3-methoxybenzoate]
- MSTN promoter activity (luciferase) after Doxorubicin (promoter of MSTN; [5]): lower expression level than a group treated with Doxorubicin alone
